Data as given in patent US4032625A, “Bone-seeking technetium-99m complex” (priority 1975, dated 1977).
Like-named read-outs stand apart in the source and are kept apart here.

Conditions: 2 Hrs

In the case of `[85Sr]` [^85 Sr], the “% Dose in Whole Organ: Blood” value (0.1 mg/kg AEDP) is reported as 2.48 % Dose, the “% Dose in Whole Organ: Kidneys” value (0.1 mg/kg AEDP) is reported as 0.324 % Dose and the “% Dose in Whole Organ: Liver” value (0.1 mg/kg AEDP) is reported as 0.654 % Dose. For the same molecule, the “% Dose in Whole Organ: Marrow” value (0.1 mg/kg AEDP) was 0.244 % Dose, the “% Dose in Whole Organ: Muscle” value (0.1 mg/kg AEDP) was 5.15 % Dose and the “% Dose in Whole Organ: W. Femur” value (0.1 mg/kg AEDP) was 3.27 % Dose. The “% Dose in Whole Organ: W. Tibia” value (0.1 mg/kg AEDP) was 2.99 % Dose, the “% Dose/1% Body weight: Blood” value (0.1 mg/kg AEDP) was 0.354 % Dose/1% Body weight and the “% Dose/1% Body weight: Bone Ave” value (0.1 mg/kg AEDP) was 10.48 % Dose/1% Body weight. For the same molecule, the “% Dose/1% Body weight: Femur” value (0.1 mg/kg AEDP) was 10.97 % Dose/1% Body weight, the “% Dose/1% Body weight: Kidneys” value (0.1 mg/kg AEDP) was 0.441 % Dose/1% Body weight and the “% Dose/1% Body weight: Liver” value (0.1 mg/kg AEDP) was 0.182 % Dose/1% Body weight. For the same molecule, the “% Dose/1% Body weight: Marrow” value (0.1 mg/kg AEDP) was 0.166 % Dose/1% Body weight, the “% Dose/1% Body weight: Muscle” value (0.1 mg/kg AEDP) was 0.136 % Dose/1% Body weight and the “% Dose/1% Body weight: Pelvis” value (0.1 mg/kg AEDP) was 8.66 % Dose/1% Body weight. For the same molecule, the “% Dose/1% Body weight: Spine” value (0.1 mg/kg AEDP) was 10.56 % Dose/1% Body weight, the “% Dose/1% Body weight: Tibia” value (0.1 mg/kg AEDP) was 11.71 % Dose/1% Body weight and the “% Dose: Urine” value (0.1 mg/kg AEDP) was 12.1 % Dose. For the same molecule, the “% Dose in Whole Organ: Blood” value (0.1 mg/kg EHDP) was 3.10 % Dose, the “% Dose in Whole Organ: Kidneys” value (0.1 mg/kg EHDP) was 0.30 % Dose and the “% Dose in Whole Organ: Liver” value (0.1 mg/kg EHDP) was 0.64 % Dose. The “% Dose in Whole Organ: Marrow” value (0.1 mg/kg EHDP) was 0.43 % Dose, the “% Dose in Whole Organ: One Femur” value (0.1 mg/kg EHDP) was 3.42 % Dose and the “% Dose/1%-body weight: Blood” value (0.1 mg/kg EHDP) was 0.443 % Dose/1%-body weight. The “% Dose/1%-body weight: Femur” value (0.1 mg/kg EHDP) was 10.9 % Dose/1%-body weight, the “% Dose/1%-body weight: Kidney” value (0.1 mg/kg EHDP) was 0.513 % Dose/1%-body weight and the “% Dose/1%-body weight: Liver” value (0.1 mg/kg EHDP) was 0.230 % Dose/1%-body weight. For the same molecule, the “% Dose/1%-body weight: Marrow” value (0.1 mg/kg EHDP) was 0.195 % Dose/1%-body weight, the “% Dose: Urine” value (0.1 mg/kg EHDP) was 11.31 % Dose and the “% Dose in Whole Organ: Blood” value (0.1 mg/kg MDP) was 3.95 % Dose. For the same molecule, the “% Dose in Whole Organ: Kidneys” value (0.1 mg/kg MDP) was 0.66 % Dose, the “% Dose in Whole Organ: Liver” value (0.1 mg/kg MDP) was 1.05 % Dose and the “% Dose in Whole Organ: Marrow” value (0.1 mg/kg MDP) was 0.57 % Dose. The “% Dose in Whole Organ: Muscle” value (0.1 mg/kg MDP) was 9.32 % Dose, the “% Dose in Whole Organ: One Femur” value (0.1 mg/kg MDP) was 2.80 % Dose and the “% Dose/1% Body weight: Blood” value (0.1 mg/kg MDP) was 0.56 % Dose/1% body weight. The “% Dose/1% Body weight: Femur” value (0.1 mg/kg MDP) was 10.0 % Dose/1% body weight, the “% Dose/1% Body weight: Kidneys” value (0.1 mg/kg MDP) was 1.00 % Dose/1% body weight and the “% Dose/1% Body weight: Liver” value (0.1 mg/kg MDP) was 0.30 % Dose/1% body weight. The “% Dose/1% Body weight: Marrow” value (0.1 mg/kg MDP) was 0.26 % Dose/1% body weight, the “% Dose/1% Body weight: Muscle” value (0.1 mg/kg MDP) was 0.22 % Dose/1% body weight and the “% Dose/1% Body weight: Pelvis” value (0.1 mg/kg MDP) was 12.2 % Dose/1% body weight. The “% Dose/1% Body weight: Spine” value (0.1 mg/kg MDP) was 8.45 % Dose/1% body weight, the “% Dose/1% Body weight: Tibia” value (0.1 mg/kg MDP) was 6.05 % Dose/1% body weight and the “% Dose/1% body weight: Ave Bone” value (0.1 mg/kg MDP) was 9.17 % Dose/1% body weight. The “% Dose: Urine” value (0.1 mg/kg MDP) was 15.4 % Dose, the “% Dose in Whole Organ: Blood” value (0.5 mg/kg AEDP) was 4.36 % Dose and the “% Dose in Whole Organ: Kidneys” value (0.5 mg/kg AEDP) was 0.384 % Dose. For the same molecule, the “% Dose in Whole Organ: Liver” value (0.5 mg/kg AEDP) was 0.720 % Dose, the “% Dose in Whole Organ: Marrow” value (0.5 mg/kg AEDP) was 0.456 % Dose and the “% Dose in Whole Organ: Muscle” value (0.5 mg/kg AEDP) was 6.51 % Dose. For the same molecule, the “% Dose in Whole Organ: W. Femur” value (0.5 mg/kg AEDP) was 2.75 % Dose, the “% Dose in Whole Organ: W. Tibia” value (0.5 mg/kg AEDP) was 2.42 % Dose and the “% Dose/1% Body weight: Blood” value (0.5 mg/kg AEDP) was 0.624 % Dose/1% Body weight. For the same molecule, the “% Dose/1% Body weight: Bone Ave” value (0.5 mg/kg AEDP) was 10.78 % Dose/1% Body weight, the “% Dose/1% Body weight: Femur” value (0.5 mg/kg AEDP) was 10.43 % Dose/1% Body weight and the “% Dose/1% Body weight: Kidneys” value (0.5 mg/kg AEDP) was 0.924 % Dose/1% Body weight. For the same molecule, the “% Dose/1% Body weight: Liver” value (0.5 mg/kg AEDP) was 0.270 % Dose/1% Body weight, the “% Dose/1% Body weight: Marrow” value (0.5 mg/kg AEDP) was 0.207 % Dose/1% Body weight and the “% Dose/1% Body weight: Muscle” value (0.5 mg/kg AEDP) was 0.151 % Dose/1% Body weight. For the same molecule, the “% Dose/1% Body weight: Pelvis” value (0.5 mg/kg AEDP) was 11.42 % Dose/1% Body weight, the “% Dose/1% Body weight: Spine” value (0.5 mg/kg AEDP) was 9.87 % Dose/1% Body weight and the “% Dose/1% Body weight: Tibia” value (0.5 mg/kg AEDP) was 11.37 % Dose/1% Body weight. For the same molecule, the “% Dose: Urine” value (0.5 mg/kg AEDP) was 10.47 % Dose, the “% Dose in Whole Organ: Blood” value (0.5 mg/kg EHDP) was 4.43 % Dose and the “% Dose in Whole Organ: Kidneys” value (0.5 mg/kg EHDP) was 0.48 % Dose. The “% Dose in Whole Organ: Liver” value (0.5 mg/kg EHDP) was 0.76 % Dose, the “% Dose in Whole Organ: Marrow” value (0.5 mg/kg EHDP) was 0.34 % Dose and the “% Dose in Whole Organ: One Femur” value (0.5 mg/kg EHDP) was 2.48 % Dose. The “% Dose/1%-body weight: Blood” value (0.5 mg/kg EHDP) was 0.633 % Dose/1%-body weight, the “% Dose/1%-body weight: Femur” value (0.5 mg/kg EHDP) was 9.213 % Dose/1%-body weight and the “% Dose/1%-body weight: Kidney” value (0.5 mg/kg EHDP) was 0.972 % Dose/1%-body weight. The “% Dose/1%-body weight: Liver” value (0.5 mg/kg EHDP) was 0.244 % Dose/1%-body weight, the “% Dose/1%-body weight: Marrow” value (0.5 mg/kg EHDP) was 0.152 % Dose/1%-body weight and the “% Dose: Urine” value (0.5 mg/kg EHDP) was 19.67 % Dose. For the same molecule, the “% Dose in Whole Organ: Blood” value (0.5 mg/kg MDP) was 3.11 % Dose, the “% Dose in Whole Organ: Kidneys” value (0.5 mg/kg MDP) was 0.45 % Dose and the “% Dose in Whole Organ: Liver” value (0.5 mg/kg MDP) was 0.69 % Dose. The “% Dose in Whole Organ: Marrow” value (0.5 mg/kg MDP) was 0.67 % Dose, the “% Dose in Whole Organ: Muscle” value (0.5 mg/kg MDP) was 5.65 % Dose and the “% Dose in Whole Organ: One Femur” value (0.5 mg/kg MDP) was 2.96 % Dose. The “% Dose/1% Body weight: Blood” value (0.5 mg/kg MDP) was 0.45 % Dose/1% body weight, the “% Dose/1% Body weight: Femur” value (0.5 mg/kg MDP) was 11.32 % Dose/1% body weight and the “% Dose/1% Body weight: Kidneys” value (0.5 mg/kg MDP) was 0.69 % Dose/1% body weight. For the same molecule, the “% Dose/1% Body weight: Liver” value (0.5 mg/kg MDP) was 0.23 % Dose/1% body weight, the “% Dose/1% Body weight: Marrow” value (0.5 mg/kg MDP) was 0.30 % Dose/1% body weight and the “% Dose/1% Body weight: Muscle” value (0.5 mg/kg MDP) was 0.13 % Dose/1% body weight. For the same molecule, the “% Dose/1% Body weight: Pelvis” value (0.5 mg/kg MDP) was 8.68 % Dose/1% body weight, the “% Dose/1% Body weight: Spine” value (0.5 mg/kg MDP) was 8.92 % Dose/1% body weight and the “% Dose/1% Body weight: Tibia” value (0.5 mg/kg MDP) was 6.16 % Dose/1% body weight. For the same molecule, the “% Dose/1% body weight: Ave Bone” value (0.5 mg/kg MDP) was 8.77 % Dose/1% body weight and the “% Dose: Urine” value (0.5 mg/kg MDP) was 15.16 % Dose.
